Assay results: paper PMC10084949, “Peptide Variant Detection by a Living Yeast Biosensor via an Epitope-Selective Protease” (Biodesign Research, 2023)
Peptide text beside a SMILES is read from it.

Experiments:
[1] = molecular target: T1, ScSte2 + ScBar1 (Saccharomyces cerevisiae, UniProt D6VTK4); assay: Dose-response activation of ScSte2 biosensor strain secreting ScBar1 (two copies, yBB01), fluorescent readout; assay type: cell-based; settings: SEM
T1 construct: we cloned codon-optimized open reading frames (ORFs) of all 5 proteases and GPCRs; expressed in transfected cells; host or cells: S. cerevisiae yBB01 (from yTC370; pTDH3-ScSTE2, two pCCW12-ScBAR1 cassettes, genome-integrated)
T1 sequence (D6VTK4 whole entry): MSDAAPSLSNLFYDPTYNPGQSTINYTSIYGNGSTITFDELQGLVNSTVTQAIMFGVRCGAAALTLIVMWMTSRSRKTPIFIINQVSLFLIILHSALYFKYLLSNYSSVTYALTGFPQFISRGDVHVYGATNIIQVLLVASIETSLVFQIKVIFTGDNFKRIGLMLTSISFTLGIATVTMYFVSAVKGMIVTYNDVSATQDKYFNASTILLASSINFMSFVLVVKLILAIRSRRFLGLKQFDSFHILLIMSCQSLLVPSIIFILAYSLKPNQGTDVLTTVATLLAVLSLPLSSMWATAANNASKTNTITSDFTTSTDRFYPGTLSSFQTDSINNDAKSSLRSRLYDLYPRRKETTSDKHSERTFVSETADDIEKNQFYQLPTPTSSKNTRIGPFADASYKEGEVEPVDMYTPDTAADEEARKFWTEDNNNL
Procedure: (§1) Glycerol stocked strains were streaked out on YPD plate and incubated for 2 days. Three colonies were picked, replated on YPD plate, incubated for 1 day, and then stored at 4 °C. For activation assays, a small scoop of yeast patch from the 3 colonies was resuspended in ~4 ml of YPD medium and incubated overnight. Overnight cells were seeded at an optical density at 600 nm (OD600) of 0.15 (as measured in 96-well plate at 200-μl volume) in SC/Glc medium after washing twice with sterile Mili-Q H2O. GPCR activity and response to increasing concentrations of synthetic peptide ligands were measured in strains carrying appropriate genome-integrated components in 96-well microtiter plates in 200-μl total volume and cultured at 30 °C and 800 rpm, unless otherwise stated. All measurements were performed in biological triplicate. Culture turbidity (OD600) and fluorescence for ymTurquoise2 (excitation, 439 nm; emission, 475 nm; gain, 75) were measured after 0 and 8 h using an Infinite 200 Pro plate reader (Tecan). Dose–response curve was measured at 11 different concentrations of the appropriate synthetic peptide ligand with a constant dilution factor and a no-peptide, H2O control. The absorbance at 600 nm normalized fluorescence values and log10-transformed peptide concentrations were fit to a 4-parameter nonlinear regression model using Prism (GraphPad) to extract GPCR-specific values for basal activation, maximal activation, EC50, and the Hill coefficient.
(§2) Statistical tests of all experiments were performed using GraphPad Prism version 7 and are detailed within the legend of each figure. In all figures, the data points represent means ± SD of biological triplicates. Curves fitted to all dose–response data were fitted in Prism 7 using the nonlinear regression: variable slope (4-parameter) curve fitting.
(§3) Changes in EC50 and activation span (maximal fluorescence activation − basal fluorescence activation) due to difference in variant peptide sequences from the wild-type peptides are depicted as ΔlogEC50 from wild-type Pep (variant peptide logEC50 − wild-type peptide logEC50) and ΔSpan from wild-type Pep (variant peptide Span – wild-type peptide Span), respectively. Apparent shift in EC50 and change in activation span in both wild-type and variant peptides due to protease expression are depicted as ΔlogEC50 with protease (peptide logEC50 with protease − peptide logEC50 without protease) and ΔSpan with protease (peptide Span with protease − peptide Span without protease), respectively.

[2] = molecular target: T2, ScSte2 (Saccharomyces cerevisiae, UniProt D6VTK4); assay: cell-based; settings: SEM
T2 construct: we cloned codon-optimized open reading frames (ORFs) of all 5 proteases and GPCRs; expressed in transfected cells; host or cells: S. cerevisiae yTC391 (from yTC370, native STE2 deleted; pTDH3-ScSTE2 genome-integrated)
T2 sequence (D6VTK4 whole entry): as above
Procedure: as §1, §2, §3

[3] = molecular target: T3, SpSte2 with SpSxa2 or other fungal proteases (Schizosaccharomyces pombe, UniProt Q00619); assay: Dose-response of SpSte2 fluorescent strains with cognate or noncognate proteases; assay type: cell-based
T3 construct: we cloned codon-optimized open reading frames (ORFs) of all 5 proteases and GPCRs; expressed in transfected cells; host or cells: S. cerevisiae strains from yTC370 (yTC530, yTC529, yTC531-534, yTC525, yTC526); two genome-integrated pTDH3-SpSTE2 copies
T3 sequence (Q00619 1-348): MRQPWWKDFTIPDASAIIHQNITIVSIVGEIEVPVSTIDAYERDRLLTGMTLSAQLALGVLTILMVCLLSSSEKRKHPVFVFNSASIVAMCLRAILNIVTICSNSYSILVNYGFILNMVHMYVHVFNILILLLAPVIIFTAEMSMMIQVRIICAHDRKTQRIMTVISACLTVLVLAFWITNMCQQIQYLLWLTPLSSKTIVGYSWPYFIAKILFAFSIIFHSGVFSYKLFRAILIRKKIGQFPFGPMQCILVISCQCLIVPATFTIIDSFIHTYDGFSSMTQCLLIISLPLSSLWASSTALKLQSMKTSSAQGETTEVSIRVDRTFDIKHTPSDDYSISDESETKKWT
Procedure: as §1
(§4) To validate the effect of peptide proteases on their complementary and noncomplementary peptides (Table S8), from the parent strain yTC370, we engineered 30 strains (Table S1).
(§5) Next, to validate whether we can control the extent of peptide cleavage by their cognate proteases by modulating the concentration of expressed protease, we constitutively expressed proteases under promoters of different expression levels. For the purpose of determining the protease’s specificity in previous section (S1), all proteases were expressed under pCCW12, which is one of the strongest characterized promoters in yeast. Here, we introduced 2 additional promoters to convey medium and low expression levels of the proteases. We selected pRPL18B for medium expression and pRAD27 for low expression level. We cloned these promoters upstream from protease ORFs in Golden Gate cassette plasmids, assembled the protease cassettes with their cognate GPCRs and fluorescent readout, and integrated into parent yTC370 strain (see Materials and Methods and Table S1). Then, we compared dose–response curves of strains responding to their cognate peptides without the protease or with protease at 3 different expression levels (low, medium, and high) (S2).

[4] = tested on: SoSte2 with SoSxa2 or other fungal proteases; assay: Dose-response of SoSte2 fluorescent strains with cognate or noncognate proteases; assay type: cell-based, Schizosaccharomyces octosporus
SoSte2 with SoSxa2 or other fungal proteases, sequence (as listed by the source): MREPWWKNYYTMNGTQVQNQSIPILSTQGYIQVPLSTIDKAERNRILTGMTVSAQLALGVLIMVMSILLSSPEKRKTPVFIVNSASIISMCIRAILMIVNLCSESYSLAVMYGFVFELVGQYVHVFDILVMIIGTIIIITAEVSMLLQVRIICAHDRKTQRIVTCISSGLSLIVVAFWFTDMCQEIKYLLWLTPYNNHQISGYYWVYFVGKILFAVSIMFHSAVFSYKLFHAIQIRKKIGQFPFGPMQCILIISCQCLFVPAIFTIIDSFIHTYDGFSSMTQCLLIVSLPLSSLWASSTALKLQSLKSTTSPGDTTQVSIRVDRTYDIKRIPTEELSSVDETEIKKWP
Procedure: as §1, with “coefficient. […]” for “coefficient.”
Next, to validate whether we can control the extent of peptide cleavage by their cognate proteases by modulating the concentration of expressed protease, we constitutively expressed proteases under promoters of different expression levels. […] We cloned these promoters upstream from protease ORFs in Golden Gate cassette plasmids, assembled the protease cassettes with their cognate GPCRs and fluorescent readout, and integrated into parent yTC370 strain (see Materials and Methods and Table S1). […]

[5] = tested on: SjSte2 with SjSxa2 or other fungal proteases; assay: Dose-response of SjSte2 fluorescent strains with cognate or noncognate proteases; assay type: cell-based, Schizosaccharomyces japonicus
SjSte2 with SjSxa2 or other fungal proteases, sequence (as listed by the source): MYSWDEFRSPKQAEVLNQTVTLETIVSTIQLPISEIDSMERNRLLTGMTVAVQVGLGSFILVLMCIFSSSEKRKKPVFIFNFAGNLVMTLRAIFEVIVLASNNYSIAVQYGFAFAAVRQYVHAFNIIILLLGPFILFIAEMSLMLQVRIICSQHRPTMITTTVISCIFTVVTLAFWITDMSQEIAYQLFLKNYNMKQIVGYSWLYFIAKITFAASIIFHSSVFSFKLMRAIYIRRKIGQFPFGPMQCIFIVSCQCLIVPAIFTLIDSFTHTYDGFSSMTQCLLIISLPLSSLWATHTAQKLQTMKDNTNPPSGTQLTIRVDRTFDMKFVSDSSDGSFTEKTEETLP
Procedure: as §1, §4, §5

[6] = noncomplementary proteases, pCCW12, fluorescent readout

Compound `CSCC[C@H](NC(=O)[C@@H]1CCCN1C(=O)[C@H](CCC(N)=O)NC(=O)[C@H](C)NC(=O)[C@@H]1CCCN1C(=O)[C@H](CCCCN)NC(=O)[C@H](CC(C)C)NC(=O)[C@H](CCC(N)=O)NC(=O)[C@H](CC(C)C)NC(=O)[C@H](Cc1c[nH]c2ccccc12)NC(=O)[C@H](Cc1c[nH]cn1)NC(=O)[C@@H](N)Cc1c[nH]c2ccccc12)C(=O)N[C@@H](Cc1ccc(O)cc1)C(=O)O` [ScPep9A] has an EC50 [1] of 15.8 µM and an EC50 [2] of 0.158 µM.

`CSCC[C@H](NC(=O)[C@@H]1CCCN1C(=O)[C@H](C)NC(=O)CNC(=O)[C@@H]1CCCN1C(=O)[C@H](CCCCN)NC(=O)[C@H](CC(C)C)NC(=O)[C@H](CCC(N)=O)NC(=O)[C@H](CC(C)C)NC(=O)[C@H](Cc1c[nH]c2ccccc12)NC(=O)[C@H](Cc1c[nH]cn1)NC(=O)[C@@H](N)Cc1c[nH]c2ccccc12)C(=O)N[C@@H](Cc1ccc(O)cc1)C(=O)O` [ScPep10A] was tested, and the EC50 [1] was 6.31 µM and the EC50 [2] was 0.126 µM.

In the case of `CSCC[C@H](NC(=O)[C@H](C)NC(=O)[C@H](CCC(N)=O)NC(=O)CNC(=O)[C@@H]1CCCN1C(=O)[C@H](CCCCN)NC(=O)[C@H](CC(C)C)NC(=O)[C@H](CCC(N)=O)NC(=O)[C@H](CC(C)C)NC(=O)[C@H](Cc1c[nH]c2ccccc12)NC(=O)[C@H](Cc1c[nH]cn1)NC(=O)[C@@H](N)Cc1c[nH]c2ccccc12)C(=O)N[C@@H](Cc1ccc(O)cc1)C(=O)O` [ScPep11A], the EC50 [1] is reported as 2.51 µM and the EC50 [2] is reported as 0.0501 µM.

`CC(C)C[C@H](NC(=O)[C@H](Cc1c[nH]c2ccccc12)NC(=O)[C@H](Cc1c[nH]cn1)NC(=O)[C@@H](N)Cc1c[nH]c2ccccc12)C(=O)N[C@@H](CCC(N)=O)C(=O)N[C@@H](CC(C)C)C(=O)N[C@@H](CCCCN)C(=O)N1CCC[C@H]1C(=O)NCC(=O)N[C@@H](CCC(N)=O)C(=O)N1CCC[C@H]1C(=O)N[C@@H](C)C(=O)N[C@@H](Cc1ccc(O)cc1)C(=O)O` [ScPep12A] was tested, and the EC50 [1] was 1 µM and the EC50 [2] was 0.0501 µM.

`CSCC[C@H](NC(=O)[C@@H]1CCCN1C(=O)[C@H](CCC(N)=O)NC(=O)CNC(=O)[C@@H]1CCCN1C(=O)[C@H](CCCCN)NC(=O)[C@H](CC(C)C)NC(=O)[C@H](CCC(N)=O)NC(=O)[C@H](CC(C)C)NC(=O)[C@H](Cc1c[nH]c2ccccc12)NC(=O)[C@H](Cc1c[nH]cn1)NC(=O)[C@@H](N)Cc1c[nH]c2ccccc12)C(=O)N[C@@H](C)C(=O)O` [ScPep13A] was tested, and the EC50 [1] was 7.94 µM and the EC50 [2] was 0.0631 µM.

For `CC(C)C[C@H](NC(=O)[C@H](CC(N)=O)NC(=O)[C@@H]1CCCN1C(=O)[C@H](CCCNC(=N)N)NC(=O)[C@H](CC(=O)O)NC(=O)[C@@H]1CCCN1C(=O)[C@H](CC(N)=O)NC(=O)[C@@H](NC(=O)[C@H](Cc1ccccc1)NC(=O)[C@@H](NC(=O)[C@H](CC(N)=O)NC(=O)[C@H](Cc1c[nH]c2ccccc12)NC(=O)[C@H](CO)NC(=O)[C@H](CCC(N)=O)NC(=O)[C@H](Cc1ccc(O)cc1)NC(=O)[C@H](C)NC(=O)[C@H](CCCNC(=N)N)NC(=O)[C@H](CC(C)C)NC(=O)[C@H](Cc1ccccc1)NC(=O)[C@H](CC(=O)O)NC(=O)[C@H](C)NC(=O)[C@H](Cc1ccc(O)cc1)NC(=O)[C@@H](N)[C@@H](C)O)[C@@H](C)O)C(C)C)C(=O)O` [SpPep] (H-TYADFLRAYQSWNTFVNPDRPNL-OH; N-terminus and C-terminus assumed), the “effect of cognate protease SpSxa2 on response” value ([3]; SpSxa2 under pCCW12 (high expression), fluorescent readout, 8 h) was “practically completely attenuated the response”, the “EC50 shift with low SpSxa2 expression” value ([3]; SpSxa2 under pRAD27 (low expression), fluorescent readout, 8 h) was “did not show notable apparent EC50 shift” and the “EC50 shift with medium SpSxa2 expression” value ([3]; SpSxa2 under pRPL18B (medium expression), fluorescent readout, 8 h) was ~2 orders of magnitude. The “cleavage by ScBar1 and CaBar1” value [3, 6] was “did not cleave”, the “apparent EC50 with complementary protease SpSxa2” value ([3]; out of the measurable peptide concentration range, pCCW12, fluorescent readout) was over 100 µM and the “apparent EC50 shift with noncomplementary proteases SjSxa2 and SoSxa2” value ([3]; pCCW12, fluorescent readout) was “between half and one order of magnitude”.

“TYEDFLRVYKNWWSFQNPDRPDL [SoPep, S. octosporus pheromone peptide, synthetic]” was tested, and the “EC50 shift with low and medium SoSxa2 expression” value ([4]; SoSxa2 under pRAD27 or pRPL18B, compared to strain with no protease) was “did not notably shift the apparent EC50”, the “cleavage by ScBar1 and CaBar1” value [4, 6] was “did not cleave” and the “apparent EC50 shift with noncomplementary proteases SjSxa2 and SpSxa2” value ([4]; pCCW12, fluorescent readout) was “between half and one order of magnitude”.

“VSDRVKQMLSHWWNFRNPDTANL [SjPep, S. japonicus pheromone peptide, synthetic]” was tested, and the “apparent EC50 shift with complementary protease SjSxa2” value ([5]; SjSxa2 under pCCW12 (high expression), fluorescent readout, 8 h) was “over one order of magnitude”, the “EC50 shift with low SjSxa2 expression” value ([5]; SjSxa2 under pRAD27 (low expression)) was “did not affect EC50” and the “apparent EC50 shift with medium and high SjSxa2 expression” value ([5]; SjSxa2 under pRPL18B and pCCW12, out of measurable range (>100 μM)) was “more than 2 orders of magnitude”. For the same compound, the EC50 ([5]; out of the measurable peptide concentration range, pCCW12, fluorescent readout, read-out: apparent EC50 with complementary protease SjSxa2) was over 100 µM.
